Patent US5756423A, “Method of controlling plants by inhibition of farnesyl pyrophosphate synthase” (Zeneca Limited, priority 1997, dated 1998)
Read-outs that look alike come from different tables or passages of the source.

Columns and labels:
[1] = system: barnyard grass (Enchinochloa crusgalli) (ECHCG); assay: post-emergent herbicidal test, barnyard grass; format: in vivo; conditions: Echinochloa crus-galli, post-emergence, read-out: ECHCG percent control
Excerpt: (§1) Seeds of several different weed species were planted in sandy loam soil containing only trace organic matter. Propagules were sown in individuals rows using one species per row across the width of an aluminum flat (19.5×9.5×6 cm). The grass weeds planted were green foxtail (Setaria viridis) ("SETVI"), wild oat (Avena fatua) ("AVEFA"), barnyard grass (Enchinochloa crusgalli) ("ECHCG"). Broadleaf weeds utilized were wild mustard (Brassica kaber), also known as Sinapis arvensis, ("SINAR"), velvetleaf (Abutilon theophrasti) ("ABUTH") and morningglory (Ipomoea spp.) ("IPOSS"). Additionally, yellow nutsedge (Cyperus esculentus) ("CYPES"), nutlets were sown. Seeding depths ranged from 1.0 to 1.5 cm and plant densities ranged from 3 to 25 plants per row depending on individual plant species.
(§2) The flats were placed into a greenhouse and watered overhead by sprinkling. The greenhouse environmental systems provided the plants with natural and artificial (via metal halide lamps) lighting to attain 14 hours of light per day. Day and night temperatures were maintained at 29° and 21° C. respectively. The plants were grown for 10 to 12 days (or to the appropriate growth stage) prior to compound application. Grasses were sprayed at a 3 to 4 leaf stage and broadleaves at a 1 to 2 leaf stage. Yellow nutsedge was 5 to 7 cm tall at application.
(§3) Solutions of the test compounds were prepared by weighing out 18.8 and 74.7 mg for 1 and 4 kg/ha applications respectively, of the test compound into a 60 ml wide-mouth bottle, then dissolving the compound in 14.0 ml of deionized water containing 0.5% v/v Tween 20' (polyoxyethylene sorbitan monolaurate emulsifier) as a surfactant. Additional solvents, not exceeding 2 ml (15% of spray volume), were used if needed to dissolve the compound.
(§4) The plants were sprayed inside an enclosed linear spray table with the nozzle set at 30.5 cm (12 inches) above the foliage.
(§5) Treated plants were then returned to a greenhouse and watered daily without wetting the foliage.
(§6) The degree of weed control was evaluated 17-21 days after application and recorded as percentage of control as compared to the growth of the same species in an untreated control flat of the same. Percent control is the total injury to the plants due to all factors including: inhibited emergence, stunting, malformation, chlorosis and other types of plant injury. The control ratings range from 0 to 100 percent, where 0% represents no effect with growth equal to the untreated control and where 100% represents complete kill.

[2] = system: morningglory (Ipomoea spp.) (IPOSS); assay: post-emergent herbicidal test, morningglory; format: in vivo; conditions: Ipomoea, post-emergence, read-out: IPOSS percent control
Excerpt: as §1, §2, §3, §4, §5, §6

[3] = system: yellow nutsedge (Cyperus esculentus) (CYPES); assay: post-emergent herbicidal test, yellow nutsedge; format: in vivo; conditions: Cyperus, post-emergence, read-out: CYPES percent control
Excerpt: as §1, §2, §3, §4, §5, §6

[4] = system: velvetleaf (Abutilon theophrasti) (ABUTH); assay: post-emergent herbicidal test, velvetleaf; format: in vivo; conditions: Abutilon theophrasti, post-emergence, read-out: ABUTH percent control
Excerpt: as §1, §2, §3, §4, §5, §6

[5] = system: wild mustard (Brassica kaber), also known as Sinapis arvensis (SINAR); assay: post-emergent herbicidal test, wild mustard; format: in vivo; conditions: Brassica, post-emergence, read-out: SINAR percent control
Excerpt: as §1, §2, §3, §4, §5, §6

[6] = system: green foxtail (Setaria viridis) (SETVI); assay: post-emergent herbicidal test, green foxtail; format: in vivo; conditions: Setaria viridis, post-emergence, read-out: SETVI percent control
Excerpt: as §1, §2, §3, §4, §5, §6

[7] = system: farnesyl pyrophosphate synthase in daffodil chromoplasts; assay: inhibition of farnesyl pyrophosphate synthase in daffodil chromoplasts (14C-isopentenyl pyrophosphate incorporation); format: biochemical, Narcissus pseudonarcissus
Protocol: The IC50 value may be determined as follows. Daffodil chromoplasts are diluted to a volume of 500 microliters in a buffer containing 0.5M sucrose, 3 mM MgCl2, 1 mM ethylenediaminetetraacetic acid, 20 mM N-tris[hydroxymethyl]methyl-2-aminoethanesulfonic acid, […] N-[2-hydroxyethyl]-piperazine-N'-[2-ethanesulfonic acid], 5 mM L-cysteine, 10 mM sodium fluoride, and 0.1% bovine serum albumin at pH 7.7. The inhibitor to be tested may be dissolved in water other suitable solvent and then added to the reaction mixture. The assay is started by the addition of ^14 C-labeled isopentenyl pyrophosphate (52 Ci/mol) to give a final concentration in the assay of about 3 micromolar. The mixture is incubated at 30° C. with gentle agitation for a period of about 30 min. The reaction may be stopped by the addition of 0.5 mL of saturated NaCl and 2 mL of n-butanol saturated with water. After thorough mixing, the turbid suspensions are centrifuged briefly to separate the layers, and 1 mL of the bright yellow upper butanol layer is added to 10 mL of a suitable scintillation fluid which gives a single phase. The butanol soluble radioactivity is then measured in a scintillation counter.
In addition, the problem of variable quenching differences among different experiments can be essentially eliminated by determining the incorporation of radioactivity relative to controls. Each set of experiments requires two control tubes identical to the test samples except that they contain no inhibitor. One of these is quenched immediately (TO sample) and one is quenched at the end of the normal incubation period (T100 sample).
For each concentration of inhibitor examined the % residual activity is determined from the formula [formula]
Tightly closed daffodil flowers (Narcissus pseudonarcissus) were allowed to open at room temperature. […] Coronae were placed in twice their weight of isolation buffer consisting of 67 mM potassium phosphate, 0.74M sucrose, 5 mM MgCl2, and 0.2% polyvinyl-pyrrolidone at pH 7.6 and were disrupted by 30 seconds of homogenization at high speed in a Waring-type blender. The mixture was filtered through several layers of cheesecloth and 2 layers of 100 micron nylon mesh, and the resulting filtrate was centrifuged at 1000×g for 10 minutes. The pellet was discarded and supernatant was centrifuged at 22,000×g for 20 minutes. […] This solution was centrifuged at 22,000×g for 20 minutes to give orange pellets which were suspended in a buffer of 100 mM tris(hydroxymethyl)aminomethane at pH 7.6 containing 5mM MgCl2 and 2 mM dithiothreitol (1 ml per 10 coronae). This solution was frozen in liquid nitrogen and then stored at -80° C.
Thawed daffodil chromoplasts (100-150 microliters) were diluted to a final volume of 500 microliters in a buffer containing 0.5M sucrose, 3 mM MgCl2, 1 mM ethylenediaminetetraacetic acid, 10 mM N-[2-hydroxyethyl]piperazine-N^1 -[2-ethanesulfonic acid], 5 mM L-cysteine, 10 mM sodium fluoride, and 0.1% bovine serum albumin at pH 7.7. The inhibitor to be tested was dissolved in water or other suitable solvent and was added to the reaction mixture. The assay was started by the addition of ^14 C-labeled isopentenyl pyrophosphate (52 Ci/mol) to give a final concentration in the assay of about 3 micromolar. The mixture was incubated at 30° C. with gentle agitation for a period of about 30 minutes. The reaction was stopped by the addition of 0.5 mL of saturated NaCl and 2 mL of n-butanol saturated with water. After thorough mixing, the turbid suspensions were centrifuged briefly to separate the layers, and 1 mL of the bright yellow upper butanol layer was added to 10 mL of a suitable scintillation fluid which gave a single phase. The butanol soluble radioactivity was then measured in a scintillation counter. Each set of experiments required two control tubes identical to the test samples except that they contain no inhibitor.

[8] = system: wild oat (Avena fatua) (AVEFA); assay: post-emergent herbicidal test, wild oat; format: in vivo; conditions: Avena fatua, post-emergence, read-out: AVEFA percent control
Excerpt: as §1, §2, §3, §4, §5, §6

[9] = post-emergent, 1.0 kg/ha (*), 17-21 days after application
[10] = Table I, unit inferred, IC50 values in nM, read-out: IC50
[11] = Table II, unit inferred, IC50 values in nM, read-out: IC50
[12] = post-emergent, 4.0 kg/ha, 17-21 days after application

Row | Compound | IC50 [7, 10] | IC50 [7, 11] | pest or weed control at 4000 g/ha [1, 12] | pest or weed control at 4000 g/ha [2, 12] | pest or weed control at 4000 g/ha [3, 12] | pest or weed control at 4000 g/ha [4, 12] | pest or weed control at 4000 g/ha [5, 12] | pest or weed control at 4000 g/ha [6, 12] | pest or weed control at 4000 g/ha [8, 12] | other results
1 | O=P(O)(O)C(CN[C@@H]1C[C@H]1c1ccccc1)P(=O)(O)O (relative stereo) [Compound 63] | 2090 nM | 2090 nM |  |  |  |  |  |  |  | pest or weed control at 1000 g/ha [1, 9]: 5%; pest or weed control at 1000 g/ha [2, 9]: 5%; pest or weed control at 1000 g/ha [3, 9]: 0%; pest or weed control at 1000 g/ha [4, 9]: 20%; pest or weed control at 1000 g/ha [5, 9]: 10%; pest or weed control at 1000 g/ha [6, 9]: 10%; pest or weed control at 1000 g/ha [8, 9]: 0%
2 | O=P(O)(O)C(Cc1ccccn1)P(=O)(O)O [2-(2,2-diphosphonic acid)ethylpyridine, reference compound] |  |  |  |  |  |  |  |  |  | IC50 ([7]; prior-art compounds, daffodil chromoplasts, read-out: IC50 value): 52 nM
3 | O=P(O)(O)C(CN1CCCCC1)P(=O)(O)O [Compound 1] | 32 nM | 32 nM | 100% | 100% | 20% | 70% | 100% | 100% | 100% | 
4 | O=P(O)(O)C(O)(C1CCCN1)P(=O)(O)O (stereo not shown) [Compound 2] | 933 nM | 933 nM | 0% | 0% | 5% | 0% | 90% | 60% | 0% | 
5 | CCCNCC(P(=O)(O)O)P(=O)(O)O [Compound 3] | 30 nM | 30 nM |  |  |  |  |  |  |  | pest or weed control at 1000 g/ha [1]: 100%; pest or weed control at 1000 g/ha [2]: 95%; pest or weed control at 1000 g/ha [3]: 30%; pest or weed control at 1000 g/ha [4]: 70%; pest or weed control at 1000 g/ha [5]: 100%; pest or weed control at 1000 g/ha [6]: 100%; pest or weed control at 1000 g/ha [8]: 100%
6 | O=P(O)(O)C(CN1CCCC1)P(=O)(O)O [Compound 4] |  | 38 nM |  |  |  |  |  |  |  | pest or weed control at 1000 g/ha [1, 9]: 90%; pest or weed control at 1000 g/ha [2, 9]: 20%; pest or weed control at 1000 g/ha [3, 9]: 5%; pest or weed control at 1000 g/ha [4, 9]: 20%; pest or weed control at 1000 g/ha [5, 9]: 100%; pest or weed control at 1000 g/ha [6, 9]: 100%; pest or weed control at 1000 g/ha [8, 9]: 60%
7 | O=P(O)(O)C(CNC1CCCCC1)P(=O)(O)O [Compound 5] | 425 nM | 425 nM | 98% | 60% | 10% | 60% | 100% | 98% | 98% | 
8 | CC(C)NCC(P(=O)(O)O)P(=O)(O)O [Compound 6] | 89 nM | 89 nM |  |  |  |  |  |  |  | pest or weed control at 4000 g/ha [1]: 60%; pest or weed control at 4000 g/ha [2]: 70%; pest or weed control at 4000 g/ha [3]: 25%; pest or weed control at 4000 g/ha [4]: 15%; pest or weed control at 4000 g/ha [5]: 100%; pest or weed control at 4000 g/ha [6]: 60%; pest or weed control at 4000 g/ha [8]: 50%
9 | CC(C)(C)NCC(P(=O)(O)O)P(=O)(O)O [Compound 7] | 238 nM | 239 nM | 50% | 60% | 15% | 5% | 100% | 60% | 85% | 
10 | CN(C)CC(P(=O)(O)O)P(=O)(O)O [Compound 8] | 2900 nM | 2900 nM |  |  |  |  |  |  |  | pest or weed control at 4000 g/ha [1]: 5%; pest or weed control at 4000 g/ha [2]: 5%; pest or weed control at 4000 g/ha [3]: 0%; pest or weed control at 4000 g/ha [4]: 0%; pest or weed control at 4000 g/ha [5]: 85%; pest or weed control at 4000 g/ha [6]: 50%; pest or weed control at 4000 g/ha [8]: 5%
11 | O=P(O)(O)C(Cn1ccnc1)P(=O)(O)O [Compound 64] |  |  |  |  |  |  |  |  |  | pest or weed control at 1000 g/ha [1, 9]: 98%; pest or weed control at 1000 g/ha [2, 9]: 100%; pest or weed control at 1000 g/ha [3, 9]: 30%; pest or weed control at 1000 g/ha [4, 9]: 75%; pest or weed control at 1000 g/ha [5, 9]: 100%; pest or weed control at 1000 g/ha [6, 9]: 100%; pest or weed control at 1000 g/ha [8, 9]: 100%
